From patent publication US12122761B2, “2-azaspiro[3.4]octane derivatives as M4 agonists” (NOVARTIS AG, priority 2019, dated 2024)

How the values were obtained:
[1] = molecular target: T1, human cloned CHRM2 receptor (M2_CHO cells) (Homo sapiens, UniProt P08172); test: CHRM2 Ca++ Flux Assay (agonist mode, FDSS 7000EX); type: cell-based; details: for M2 FDSS PA: Percent Activity measured to EC100 of Carbachol; for EC50: agonist mode, geometric mean if tested more than once, read-out: M2 FDSS EC50
T1 construct: expressed in transfected cells; host or cells: CHO-K1
T1 sequence (P08172 1-466): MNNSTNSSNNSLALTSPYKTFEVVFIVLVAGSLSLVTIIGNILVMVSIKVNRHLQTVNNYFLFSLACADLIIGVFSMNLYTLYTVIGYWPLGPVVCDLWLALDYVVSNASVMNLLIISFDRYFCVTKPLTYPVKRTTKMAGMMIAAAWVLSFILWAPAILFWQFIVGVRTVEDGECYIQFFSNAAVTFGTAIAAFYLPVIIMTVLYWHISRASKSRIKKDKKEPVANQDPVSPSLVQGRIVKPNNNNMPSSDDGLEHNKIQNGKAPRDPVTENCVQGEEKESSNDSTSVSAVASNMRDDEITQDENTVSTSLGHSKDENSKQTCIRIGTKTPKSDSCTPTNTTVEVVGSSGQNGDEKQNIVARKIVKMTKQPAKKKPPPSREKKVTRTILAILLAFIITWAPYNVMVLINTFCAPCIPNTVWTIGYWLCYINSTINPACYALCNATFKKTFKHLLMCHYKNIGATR
Method in brief: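 Agonist-mode Ca++ flux in CHO-K1 cells stably expressing human CHRM2, dye-loaded, then held 60 min at room temperature in buffer with 20 μM ATP before compound addition; traces read over 3 minutes. Four-parameter fit of triplicate wells; percent activity relative to Carbachol EC100.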

[2] = molecular target: T2, Cloned human M1 receptor (CHRM1) stably expressed in HEK293 cells (Homo sapiens, UniProt P11229); test: CHRM1 Ca++ Flux Assay (agonist mode, FDSS 7000EX); type: cell-based; details: for M1 FDSS PA: Percent Activity; for EC50: geometric mean if tested more than once
T2 construct: expressed in transfected cells; host or cells: HEK293
T2 sequence (P11229 1-460): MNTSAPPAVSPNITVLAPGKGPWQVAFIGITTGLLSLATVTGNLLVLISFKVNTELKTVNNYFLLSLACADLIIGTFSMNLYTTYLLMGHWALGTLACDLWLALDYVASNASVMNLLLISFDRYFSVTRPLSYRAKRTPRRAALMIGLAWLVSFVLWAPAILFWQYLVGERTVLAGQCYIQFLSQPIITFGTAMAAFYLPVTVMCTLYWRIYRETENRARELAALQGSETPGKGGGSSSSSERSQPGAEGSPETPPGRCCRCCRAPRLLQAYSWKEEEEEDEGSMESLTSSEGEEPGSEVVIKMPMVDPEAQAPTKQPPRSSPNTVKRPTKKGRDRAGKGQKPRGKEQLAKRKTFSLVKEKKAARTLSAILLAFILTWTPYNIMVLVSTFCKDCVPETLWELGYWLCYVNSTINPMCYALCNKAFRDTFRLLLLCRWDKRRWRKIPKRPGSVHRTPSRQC
Method in brief: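 Compounds tested as agonists at 11 concentrations in triplicate, with calcium traces captured over 3 minutes. Cells were HEK293 with stable human CHRM1 expression, plated overnight at 25K/well and loaded with calcium dye. Responses normalized to carbachol EC100 and fitted by four-parameter nonlinear regression.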

M2 FDSS PA [1] [%]	EC50 [1] [nM]	M1 FDSS PA [2] [%]	EC50 [2] [nM]	Structure (SMILES)
11	506	55	1410	Fc1ccc(C2CCOCC2)c(C2CCN([C@@H]3CCC4(C3)CN(c3cncnc3)C4)CC2)c1 (single isomer, unassigned) [Example 10D, (R)-6-(4-(5-fluoro-2-(tetrahydro-2H-pyran-4-yl)phenyl)piperidin-1-yl)-2-(pyrimidin-5-yl)-2-azaspiro[3.4]octane or (S)-6-(4-(5-fluoro-2-(tetrahydro-2H-pyran-4-yl)phenyl)piperidin-1-yl)-2-(pyrimidin-5-yl)-2-azaspiro[3.4]octane]
11	3990	4	3990	Fc1ccc(OC2CC3(COC3)C2)c(C2CCN([C@@H]3CCC4(C3)CN(c3cncnc3)C4)CC2)c1 (single isomer, unassigned) [Example 10E, (R)-6-(4-(2-((2-oxaspiro[3.3]heptan-6-yl)oxy)-5-fluorophenyl)piperidin-1-yl)-2-(pyrimidin-5-yl)-2-azaspiro[3.4]octane or (S)-6-(4-(2-((2-oxaspiro[3.3]heptan-6-yl)oxy)-5-fluorophenyl)piperidin-1-yl)-2-(pyrimidin-5-yl)-2-azaspiro[3.4]octane]
0		0	> 25000	Fc1ccc(OC2CC3(COC3)C2)c(C2CCN([C@@H]3CCC4(C3)CN(c3cncnc3)C4)CC2)c1 (single isomer, unassigned) [Example 10F, (R)-6-(4-(2-((2-oxaspiro[3.3]heptan-6-yl)oxy)-5-fluorophenyl)piperidin-1-yl)-2-(pyrimidin-5-yl)-2-azaspiro[3.4]octane or (S)-6-(4-(2-((2-oxaspiro[3.3]heptan-6-yl)oxy)-5-fluorophenyl)piperidin-1-yl)-2-(pyrimidin-5-yl)-2-azaspiro[3.4]octane]
0		64	63	Fc1ccc(OC2CCOCC2)c(C2CCN([C@@H]3CCC4(C3)CN(c3cncnc3)C4)CC2)c1 (single isomer, unassigned) [Example 10G, (R)-6-(4-(5-fluoro-2-((tetrahydro-2H-pyran-4-yl)oxy)phenyl)piperidin-1-yl)-2-(pyrimidin-5-yl)-2-azaspiro[3.4]octane or (S)-6-(4-(5-fluoro-2-((tetrahydro-2H-pyran-4-yl)oxy)phenyl)piperidin-1-yl)-2-(pyrimidin-5-yl)-2-azaspiro[3.4]octane]
0		36	1390	Fc1ccc(OC2CCOCC2)c(C2CCN([C@@H]3CCC4(C3)CN(c3cncnc3)C4)CC2)c1 (single isomer, unassigned) [Example 10H, (R)-6-(4-(5-fluoro-2-((tetrahydro-2H-pyran-4-yl)oxy)phenyl)piperidin-1-yl)-2-(pyrimidin-5-yl)-2-azaspiro[3.4]octane or (S)-6-(4-(5-fluoro-2-((tetrahydro-2H-pyran-4-yl)oxy)phenyl)piperidin-1-yl)-2-(pyrimidin-5-yl)-2-azaspiro[3.4]octane]
0		0	> 25000	COc1ccccc1C1CCN([C@H]2CCC3(C2)CN(c2ncco2)C3)CC1 (single isomer, unassigned) [Example 10I, S)-2-(6-(4-(2-methoxyphenyl)piperidin-1-yl)-2-azaspiro[3.4]octan-2-yl)oxazole or (R)-2-(6-(4-(2-methoxyphenyl)piperidin-1-yl)-2-azaspiro[3.4]octan-2-yl)oxazole]
42		66	20	COc1ccccc1C1CCN([C@H]2CCC3(C2)CN(c2ncco2)C3)CC1 (single isomer, unassigned) [Example 10J, (S)-2-(6-(4-(2-methoxyphenyl)piperidin-1-yl)-2-azaspiro[3.4]octan-2-yl)oxazole or (R)-2-(6-(4-(2-methoxyphenyl)piperidin-1-yl)-2-azaspiro[3.4]octan-2-yl)oxazole]
0		65	94	FC(F)(F)Oc1ccccc1C1CCN([C@@H]2CCC3(C2)CN(c2ncco2)C3)CC1 (single isomer, unassigned) [Example 10K, (R)-2-(6-(4-(2-(trifluoromethoxy)phenyl)piperidin-1-yl)-2-azaspiro[3.4]octan-2-yl)oxazole or (S)-2-(6-(4-(2-(trifluoromethoxy)phenyl)piperidin-1-yl)-2-azaspiro[3.4]octan-2-yl)oxazole]
44	13200	50	736	FC(F)(F)Oc1ccccc1C1CCN([C@@H]2CCC3(C2)CN(c2ncco2)C3)CC1 (single isomer, unassigned) [Example 10L, (R)-2-(6-(4-(2-(trifluoromethoxy)phenyl)piperidin-1-yl)-2-azaspiro[3.4]octan-2-yl)oxazole or (S)-2-(6-(4-(2-(trifluoromethoxy)phenyl)piperidin-1-yl)-2-azaspiro[3.4]octan-2-yl)oxazole]
0	> 25000	77	49	FC(F)(F)Oc1ccccc1C1CCN([C@@H]2CCC3(C2)CN(c2nncs2)C3)CC1 (single isomer, unassigned) [Example 10M, (R)-2-(6-(4-(2-(trifluoromethoxy)phenyl)piperidin-1-yl)-2-azaspiro[3.4]octan-2-yl)-1,3,4-thiadiazole or (S)-2-(6-(4-(2-(trifluoromethoxy)phenyl)piperidin-1-yl)-2-azaspiro[3.4]octan-2-yl)-1,3,4-thiadiazole]
28		0	> 25000	FC(F)(F)Oc1ccccc1C1CCN([C@@H]2CCC3(C2)CN(c2nncs2)C3)CC1 (single isomer, unassigned) [Example 10N, (R)-2-(6-(4-(2-(trifluoromethoxy)phenyl)piperidin-1-yl)-2-azaspiro[3.4]octan-2-yl)-1,3,4-thiadiazole or (S)-2-(6-(4-(2-(trifluoromethoxy)phenyl)piperidin-1-yl)-2-azaspiro[3.4]octan-2-yl)-1,3,4-thiadiazole]
17		83	44	FC(F)Oc1ccccc1C1CCN([C@@H]2CCC3(C2)CN(c2nncs2)C3)CC1 (single isomer, unassigned) [Example 10O, (R)-2-(6-(4-(2-(difluoromethoxy)phenyl)piperidin-1-yl)-2-azaspiro[3.4]octan-2-yl)-1,3,4-thiadiazole or (S)-2-(6-(4-(2-(difluoromethoxy)phenyl)piperidin-1-yl)-2-azaspiro[3.4]octan-2-yl)-1,3,4-thiadiazole]
18		66	170	COc1ccccc1C1CCN([C@@H]2CCC3(C2)CN(c2ncns2)C3)CC1 (single isomer, unassigned) [Example 10Q, (R)-5-(6-(4-(2-methoxyphenyl)piperidin-1-yl)-2-azaspiro[3.4]octan-2-yl)-1,2,4-thiadiazole or (S)-5-(6-(4-(2-methoxyphenyl)piperidin-1-yl)-2-azaspiro[3.4]octan-2-yl)-1,2,4-thiadiazole]
0		0	> 25000	COc1ccccc1C1CCN([C@@H]2CCC3(C2)CN(c2ncns2)C3)CC1 (single isomer, unassigned) [Example 10R, (R)-5-(6-(4-(2-methoxyphenyl)piperidin-1-yl)-2-azaspiro[3.4]octan-2-yl)-1,2,4-thiadiazole or (S)-5-(6-(4-(2-methoxyphenyl)piperidin-1-yl)-2-azaspiro[3.4]octan-2-yl)-1,2,4-thiadiazole]
